Results on 80 compounds are retold here after the METLIN SMRT retention time set (Domingo-Almenara et al. 2019).

SMILES strings stand for the structures.

This series can be described thus: gradient 5% acetonitrile 3 min, to 50% in 2 min, to 85% in 15 min, held 3 min, 100 µL/min. The conditions noted are these: column: Zorbax Extend-C18 2.1 x 50 mm; eluents: water / acetonitrile, 0.1% formic acid. Put shortly: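 Data were gathered over 3 months by HPLC coupled to a quadrupole time-of-flight mass spectrometer, operated in positive and negative ionization mode. Mixtures of ~100 pure standards ran on a Zorbax Extend-C18 column (2.1 × 50 mm, 1.8 μm) at 100 μL/min, with water and acetonitrile each containing 0.1% formic acid and dead and dwell volumes of 40 μL and 900 μL. Retention time was read from adduct peaks picked by computer and checked manually.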
The compound `O=C(NC1CC1)c1nc(C(=O)N2CCN(c3ccccc3)CC2)cs1` had an RP-LC retention time of 759 s.

Compound `O=c1n(Cc2cccc(Br)c2)nc2c(S(=O)(=O)N3CCCC3)cccn12` had an RP-LC retention time of 887 s.

Compound `CCCNc1cc(N2CCC(CCC(=O)NC3CCN(Cc4ccccc4)CC3)CC2)ncn1` showed an RP-LC retention time of 572 s.

Consider `CC1CCN(S(=O)(=O)c2ccc(-c3nnc(C(C)C)o3)o2)CC1`, for which the RP-LC retention time stood at 964 s.

On to `CCC(C)NC(=O)N1CC=C(c2cn(C(C)C)c3ncccc23)CC1` (stereo not given), for which the RP-LC retention time was found to be 821 s.

`C=CCN1CCN(c2ccc3nnc(CCc4nc(-c5ccc(OC)cc5)no4)n3n2)CC1` yielded an RP-LC retention time of 603 s.

Consider `COCCNC(=O)C1Cn2cccc2C(=O)N1C` (stereo not given), for which the RP-LC retention time is 570 s.

For the compound `O=C(NC1CCCCCC1)c1nnc(-c2ccc(S(=O)(=O)N3CCOCC3)cc2)o1`, the RP-LC retention time came to 917 s.

For `Cc1ccc(S(=O)(=O)NCc2c(-c3ccccc3)nc3sc(C)nn23)cc1`, the RP-LC retention time turned out to be 858 s.

`CC1CCN(CCNC(=O)C2CCCN(c3ncnc4c3nc3n4CCCCC3)C2)CC1` (stereo not given): the RP-LC retention time came out at 599 s.

The compound `Cc1ccc(Cl)c(NS(=O)(=O)c2cc(-c3[nH]ncc3C(=O)N(C)C)oc2C)c1` had an RP-LC retention time of 717 s.

Consider `Cc1ccc(CN2CCN(CC(=O)Nc3nc(-c4ccc(C)c(C)c4)cs3)CC2)cc1`, for which the RP-LC retention time was 831 s.

For `CCc1nc2cc(-c3noc(-c4nccc5ccccc45)n3)ccc2o1`, the RP-LC retention time is 1130 s.

With `O=C(NCc1cc(-c2ccco2)on1)c1ncc(-c2ccccc2)o1`, the RP-LC retention time was 863 s.

As to `COC(=O)C1C(=O)C2=C(CC1C)NC(=O)CC2c1cccc(Cl)c1` (stereo not given), the RP-LC retention time is 773 s.

Regarding `COc1ccc(C2(C(=O)N3CCCC(Cn4cnc5cccnc54)C3)CC2)cc1` (stereo not given), the RP-LC retention time was 656 s.

For the compound `O=C1CN(S(=O)(=O)c2cccc(Cl)c2)CC2(CCOCC2)N1CC1CC1`, the RP-LC retention time came out at 877 s.

As to `Cc1ccc2ncn(C3CCN(S(=O)(=O)c4cc(C)c(C)cc4C)CC3)c(=O)c2c1`, the RP-LC retention time worked out at 1050 s.

In turn, `Cc1ccc(-c2nnc(Cc3nc(-c4ccc(F)cc4)no3)o2)cc1C` had an RP-LC retention time of 1120 s.

Compound `Cc1noc(C)c1CCC(=O)N1CCC(c2nnc(-c3ccco3)s2)CC1` showed an RP-LC retention time of 666 s.

`O=C(NCCc1ccc(Cl)cc1)C1CCN(C(=O)c2cccn2-c2cccnc2)CC1` yielded an RP-LC retention time of 727 s.

On to `CS(=O)(=O)N1CCCc2ccc(NC(=O)c3ccc4nsnc4c3)cc21`, for which the RP-LC retention time is 786 s.

Regarding `Cc1ccccc1-c1nc2cnccn2c1NCCC(=O)NCc1ccc(F)c(Cl)c1`, the RP-LC retention time was found to be 714 s.

`CSc1ccc(Cl)c(C(=O)Nc2cccn3c(C)nnc23)c1` yielded an RP-LC retention time of 759 s.

`COc1ccc(C2CC(=O)N(CC(=O)NCC3CCCO3)c3ccccc3S2)cc1` (stereo not given) came in with an RP-LC retention time of 826 s.

`O=C(CN1C(=O)C(O)(c2cccc(F)c2)c2ccccc21)NCCC1=CCCCC1` (stereo not given) yielded an RP-LC retention time of 965 s.

Compound `O=C(NCc1ccc(F)cc1)N1CCC(Nc2cccnc2)C1` (stereo not given) had an RP-LC retention time of 591 s.

For the compound `Cc1ccccc1OCc1nc(-c2ccc3c(c2)oc(=O)n3C(C)C)no1`, the RP-LC retention time came to 1160 s.

`COc1ccc(Cc2nc(-c3cccc(-c4ccn[nH]4)c3)no2)cc1`: the RP-LC retention time was found to be 911 s.

As to `COc1ccc(CCNC(=O)C2CN(S(C)(=O)=O)CC23CCCCC3)cc1OC` (stereo not given), the RP-LC retention time was 763 s.

For `COC(=O)c1ccc(C(=O)NCC2CCS(=O)(=O)C2)cc1` (stereo not given), the RP-LC retention time worked out at 620 s.

Regarding `CCOc1ccccc1NC(=O)N1CCc2nc(-c3ccccc3)ncc2C1`, the RP-LC retention time stood at 1010 s.

`CCOc1ccc(/C=C2\CCc3ccccc3C2=O)cc1` yielded an RP-LC retention time of 1290 s.

`O=C(O)/C=C/C(=O)N1Cc2cc3ccccc3nc2C1` came in with an RP-LC retention time of 681 s.

Compound `CC1=C(c2ccc(F)cc2)S(=O)(=O)N=C1N1CCCN(C(=O)NCC(C)C)CC1` came in with an RP-LC retention time of 793 s.

The compound `CCc1ccc(CNC(=O)Cc2nnc(-c3cnccn3)o2)cc1` gave an RP-LC retention time of 739 s.

Compound `CN1CCN(c2ccc(CNC(=O)C3CCc4sc(C(=O)N(C)C)cc4C3)cc2)CC1` (stereo not given) yielded an RP-LC retention time of 576 s.

As for `Cc1sc(-c2nnc(C3CC3)o2)cc1NC(=O)Cc1ccccc1F`, the RP-LC retention time is 944 s.

In the case of `Cc1cccc(-c2nc(Cc3noc(CNC(=O)c4ccccc4)n3)c(C)o2)c1`, the RP-LC retention time was 924 s.

For the compound `COc1ccc(S(=O)(=O)N2CCc3nc(-c4ccc(Cl)cc4)ncc3C2)cc1`, the RP-LC retention time came out at 1100 s.

Turning to `Cn1nc(C(=O)N2C[C@@H]3C[C@H]2C[C@@H]3NC(=O)c2cccs2)c2ccccc21`, the RP-LC retention time came to 766 s.

Regarding `Cc1ccc2oc(-c3nnc(C(=O)NCCCN4CCOCC4)o3)c(C)c2c1`, the RP-LC retention time worked out at 668 s.

For `CCc1nc(N2CCC(C(=O)NCc3ccc(OC)cc3OC)CC2)c2c(C)scc2n1`, the RP-LC retention time is 706 s.

Compound `O=C(NCc1nc2ccccc2[nH]1)c1coc(NC(=O)c2cccs2)n1` displayed an RP-LC retention time of 556 s.

The compound `Cc1ccc(-c2csc(Nc3ccc(Br)cn3)n2)cc1` showed an RP-LC retention time of 1250 s.

`O=C(NCc1ccco1)C1CN(C(=O)c2ccc(F)c(F)c2)C1` had an RP-LC retention time of 663 s.

For `CC(C)(C)OC(=O)COc1cc(O)c2c(=O)cc(-c3ccccc3)oc2c1`, the RP-LC retention time worked out at 1210 s.

The compound `CN(C)CCNC(=O)c1ccc(Cn2nc(N3CCN(c4ccc(F)cc4)CC3)ccc2=O)o1` registered an RP-LC retention time of 588 s.

`Cc1ccc(CNC(=O)CCc2ccc3cc[nH]c3c2)cc1` returned an RP-LC retention time of 879 s.

`CCc1nn2c(CNS(=O)(=O)c3cccc(F)c3)c(-c3ccccc3)nc2s1` gave an RP-LC retention time of 935 s.

Regarding `Cc1ccc(S(=O)(=O)Nc2ccc(C)n(CC(=O)O)c2=O)cc1`, the RP-LC retention time was found to be 694 s.

`Cc1cc2cc3n(c2nn1)N=C(Cl)CC3` showed an RP-LC retention time of 610 s.

The compound `CN1CCN(C(=O)C2CCN(c3nc4ccc(-c5ccc(F)cc5)nc4s3)CC2)CC1` returned an RP-LC retention time of 674 s.

Regarding `Cc1ccccc1-c1nc(-c2cccc(-c3ccnn3C)c2)no1`, the RP-LC retention time was 1220 s.

For `COc1cc(-c2oc3cc(O)cc(O)c3c(=O)c2O[C@@H]2O[C@H](CO)[C@@H](O)[C@H](O)[C@H]2O)ccc1O`, the RP-LC retention time stood at 684 s.

`COc1nc2ccccc2nc1N1CCCC(C(=O)NCc2ccco2)C1` (stereo not given): the RP-LC retention time was 951 s.

As to `Cc1cc(C)cc(NC(=O)C2CCCN(S(=O)(=O)c3cc(-c4noc(C)n4)cs3)C2)c1` (stereo not given), the RP-LC retention time amounted to 1060 s.

On to `Cc1ccc(-c2nc3cnccn3c2NCCC(=O)NCC(C)C)cc1`, for which the RP-LC retention time was 690 s.

`CCc1noc(NC(C)=O)c1-c1ccc(C)c(S(=O)(=O)NC2CCCCCC2)c1` registered an RP-LC retention time of 909 s.

In the case of `CC(C)(C)C(=O)N1CCOC(c2ccccc2)C1` (stereo not given), the RP-LC retention time came to 831 s.

Turning to `CCc1cc(C(=O)Nc2ccc(OC)c(Cl)c2)nc2ccnn12`, the RP-LC retention time worked out at 1040 s.

Turning to `COc1ccc(C(=O)N2C[C@H](c3nc(-c4ccncc4)no3)[C@@H](C)C2)c(OC)c1`, the RP-LC retention time turned out to be 743 s.

Turning to `COc1ccc(CNC(=O)c2sc(-c3cn(C)c4ncccc34)nc2C)cc1`, the RP-LC retention time worked out at 958 s.

As to `Cc1noc([C@@H]2CC(F)(F)CN2C(=O)c2coc(C)n2)n1`, the RP-LC retention time is 694 s.

Regarding `CC(NC(=O)c1cn2c(n1)CCCC2)c1ccc(F)cc1` (stereo not given), the RP-LC retention time is 612 s.

Turning to `Cc1ccc(CNC(=O)C2(C)CN(S(C)(=O)=O)CC(=O)N2CCCc2ccccc2)cc1` (stereo not given), the RP-LC retention time was found to be 927 s.

Compound `Cc1ccc(S(=O)(=O)N2CCc3nc[nH]c3C2)cc1C` displayed an RP-LC retention time of 611 s.

Turning to `O=C(NCCN1CCOCC1)c1nnc(-c2ccc(S(=O)(=O)N3CCOCC3)cc2)o1`, the RP-LC retention time worked out at 578 s.

Compound `COc1ccc(NC(=O)C2CC(=O)N(CCc3c[nH]c4ccc(OC)cc34)C2)cc1` (stereo not given) came in with an RP-LC retention time of 728 s.

Turning to `O=C(COc1cc(O)c2c(=O)c3ccccc3oc2c1)c1ccc(Br)cc1`, the RP-LC retention time stood at 1280 s.

Regarding `Cc1ccc(-c2nc(Nc3ccc(C)c(Cl)c3)sc2CC(=O)O)cc1`, the RP-LC retention time worked out at 1100 s.

In turn, `O=C(NCC(=O)N1CCc2ccccc21)Nc1cccc(Br)c1` returned an RP-LC retention time of 894 s.

`CCOc1ccc(S(=O)(=O)N2CCC(C(=O)NCc3cccnc3)CC2)cc1` returned an RP-LC retention time of 623 s.

`CSc1ccc(NC(=O)C2CCCN(c3cnc4nc(C)c(C)nc4c3)C2)cc1` (stereo not given) showed an RP-LC retention time of 819 s.

Turning to `Cc1cc(Nc2ccc(NC(=O)Nc3ccccc3)cc2)nc(N2CCOCC2)n1`, the RP-LC retention time stood at 662 s.

The compound `Cc1cc(-c2c(C)sc(C)c2S(=O)(=O)NCC(C)c2ccccc2)n[nH]1` (stereo not given) yielded an RP-LC retention time of 1140 s.

On to `CCOc1ccc(NC(=O)Cn2c(N3CCOCC3)nc(COC)cc2=O)cc1`, for which the RP-LC retention time stood at 967 s.

As to `CCN1CCN(c2cc(C)c3cc(NC(=O)Cc4cccs4)ccc3n2)CC1`, the RP-LC retention time worked out at 578 s.

The compound `C=CCN(c1ccccc1)c1nc(C(=O)OCC)nc2ccccc12` displayed an RP-LC retention time of 1000 s.

Consider `CC(C)CNC(=O)N1CCCC(c2nc(C(C)C)no2)CCNC(=O)CC1` (stereo not given), for which the RP-LC retention time stood at 679 s.
